Patent US11225460B2, “Pyrrolidineamide derivatives and uses thereof” (SUNSHINE LAKE PHARMA CO., LTD., priority 2019, dated 2022)
Read-outs that look alike come from different tables or passages of the source.

What was measured:
[1] = Pharmacokinetic evaluation after intravenous or gavage administration in monkeys; assay type: in vivo
Experimental: The LC-MS/MS system comprises Agilent 1200 series vacuum degassing furnace, quaternary pumps, well-plate autosampler, thermostatted column compartment, the API4000Qtrap Triple Quadrupole Mass Spectrometer with an electrospray ionization (ESI) source. Quantitative analysis was carried out using MRM mode. The parameters for MRM transitions are in Table 2.
Analysis was carried out on waters xbridge C18 (2.1×50 mm, […] column, 0.5 μL of sample), the analytic conditions are mobile phases cosisting of water+2 mM ammonium formate+0.1% formic acid (Phase A) and methanol+2 mM ammonium formate+0.1% formic acid (Phase B). The flow rate was 0.4 mL/min. And the gradient of Mobile phase was in Table 3.
Each animal species was divided into two groups: one was administered intravenously and the other was administered intragastrically. The compounds disclosed herein were administered in form of a solution containing 5% DMSO+5% Kolliphor HS15+90% Saline. For the group of intravenous administration, the administration dose was 1 mg/kg, and vein blood samples (0.3 ml) were collected at the time points of 0.083, 0.25, 0.5, 1.0, 2.0, 4.0, 6.0, 8.0 and 24 h after drug administration, then plasma solutions were collected by centrifuging each blood sample at 3000 rpm or 4000 rpm for 10 minutes and kept at −20° C. or −70° C. For the group of intragastric administration, the administration dose was 5 mg/kg, and vein blood samples (0.3 mL) were collected at the time points of 0.25, 0.5, 1.0, 2.0, 4.0, 6.0, 8.0 and 24 h after drug administration, then plasma solutions were collected by centrifuging each blood sample at 3000 rpm or 4000 rpm for 10 minutes and kept at −20° C. or −70° C.
20 μL of plasma was blended with 120 μl, 50 ng/ml propranolol standard water solution, then the mixture was extracted with 1.0 mL methyl tert-butyl ether (MTBE), 0.7 mL of supernatant was dried by blow with nitrogen and then dissolved again with 220 μL methanol water (methanol/water (v/v)=1/1). LC-MS/MS method was used to detect the concentration of the target compounds, and […] was used to calculate the pharmacokinetic parameters.

[2] = Evaluation of blood-brain barrier (BBB) after peritoneal injection in rats; assay type: in vivo; settings: SD rats, intraperitoneal 10 mg/kg; for Kp at 15 min / Kp at 60 min / Kp at 120 min: Sprague-Dawley, rat
Experimental: The analysis method was the same as example B.
The experiment was divided into three groups: 15 min group, 1 h group and 2 h group. After overnight fasting for 12 hours, SD rats were administered by intraperitoneal injection with the compound of the invention in the form of 5% DMSO+5% Kolliphor HS15+90% Saline solution at a dose of 10 mg/kg. Blood, cerebrospinal fluid and brain tissue were collected at 15 minutes, 1 hour and 2 hours respectively after administration. Blood samples were centrifuged at 3,000 or 4,000 rpm for 10 minutes. The plasma solution was collected and kept at −20° C. or −70° C. The cerebrospinal fluid was processed using a protein precipitation method. A certain volume of cerebrospinal fluid sample were precisely absorbed and precipitated by adding 5 times acetonitrile solution containing internal standard. The mixture was mixed well by vortexing, and then centrifuged for 2 minutes at 12,000 rpm at 4° C., the supernatant was kept at −80° C. Brain tissue was homogenized with 2 times methanol solution, and centrifuged to get the supernatant, the supernatant were precipitated by adding 5 times acetonitrile solution containing internal standard.
The mixture was mixed well by vortexing, and then centrifuged for 2 minutes at 12,000 rpm at 4° C., the supernatant was kept at −80° C. LC-MS/MS method was used to detect the concentration of target compounds, BBB permeability was calculated and statistical analysis was carried out.

[3] = monkey, plasma, iv, i.v group, 1 mg/kg
[4] = monkey, plasma, po, i.g group, 5 mg/kg
[5] = brain, 15 min, read-out: T/P Ratio Brain (brain tissue)
[6] = brain, 60 min, read-out: T/P Ratio Brain (brain tissue)
[7] = brain, 120 min, read-out: T/P Ratio Brain (brain tissue)
[8] = cerebrospinal fluid, 15 min, read-out: T/P Ratio CSF (cerebrospinal fluid)
[9] = cerebrospinal fluid, 60 min, read-out: T/P Ratio CSF (cerebrospinal fluid)
[10] = cerebrospinal fluid, 120 min, read-out: T/P Ratio CSF (cerebrospinal fluid)

NC(=O)[C@@H]1C[C@H](F)CN1Cc1ccc(OCc2cccc(F)c2)cc1F [Example 3, (2S,4S)-4-fluoro-1-(2-fluoro-4-(3-fluorobenzyloxy)benzyl)pyrrolidine-2-formamide]
F ([1]; i.g group, 5 mg/kg): 69.1% | AUC(0-inf) [1, 3]: 3260 ng·h/mL | AUC(0-t) [1, 3]: 3240 ng·h/mL | MRT inf [1, 3]: 3.41 h | Tmax [1, 3]: 0.083 h | clearance [1, 3]: 5.12 mL/min/kg | half-life [1, 3]: 2.24 h | Cmax ([1]; monkey, plasma, iv, i.v group, 1 mg/kg, read-out: Cmax): 1610 ng/mL | AUC(0-inf) [1, 4]: 11200 ng·h/mL | AUC(0-t) [1, 4]: 11200 ng·h/mL | MRT inf [1, 4]: 5.02 h | Tmax [1, 4]: 1 h | half-life [1, 4]: 3.39 h | Cmax ([1]; monkey, plasma, po, i.g group, 5 mg/kg, read-out: Cmax): 2010 ng/mL | Conc. Brain (brain tissue) ([2]; 15 min): 8610 ng/g or ng/ml | Conc. CSF (cerebrospinal fluid) ([2]; 15 min): 56.67 ng/g or ng/ml | Conc. Plasm (plasma) ([2]; 15 min): 3496.67 ng/g or ng/ml | Conc. Brain (brain tissue) ([2]; 60 min): 5253.33 ng/g or ng/ml | Conc. CSF (cerebrospinal fluid) ([2]; 60 min): 39.77 ng/g or ng/ml | Conc. Plasm (plasma) ([2]; 60 min): 1930 ng/g or ng/ml | Conc. Brain (brain tissue) ([2]; 120 min): 1576.67 ng/g or ng/ml | Conc. CSF (cerebrospinal fluid) ([2]; 120 min): 13.05 ng/g or ng/ml | Conc. Plasm (plasma) ([2]; 120 min): 686.67 ng/g or ng/ml | Kp at 15 min [2, 5]: 2.46 | Kp at 60 min [2, 6]: 2.72 | Kp at 120 min [2, 7]: 2.3 | Kp at 15 min [2, 8]: 0.016 | Kp at 60 min [2, 9]: 0.021 | Kp at 120 min [2, 10]: 0.019

NC(=O)[C@@H]1C[C@H](F)CN1Cc1ccc(OCc2cccc(F)c2)cc1 [Example 1, (2S,4S)-4-fluoro-1-(4-(3-fluorobenzyloxy)benzyl)pyrrolidine-2-formamide]
AUClast ([1]; i.g group, 5 mg/kg): 11300 ng·h/mL | Cmax ([1]; i.g group, 5 mg/kg): 2280 ng/mL | F ([1]; i.g group, 5 mg/kg): 107.1% | T1/2 ([1]; i.g group, 5 mg/kg): 2.8 h | AUClast ([1]; i.v group, 1 mg/kg): 2120 ng·h/mL | Cl ([1]; i.v group, 1 mg/kg): 7.54 mL/min/kg | Cmax ([1]; i.v group, 1 mg/kg): 924 ng/mL | T1/2 ([1]; i.v group, 1 mg/kg): 1.77 h | AUC(0-inf) [1, 3]: 2210 ng·h/mL | MRT inf [1, 3]: 2.35 h | Tmax [1, 3]: 0.083 h | AUC(0-inf) [1, 4]: 11400 ng·h/mL | MRT inf [1, 4]: 4.33 h | Tmax [1, 4]: 1 h | Conc. Brain (brain tissue) ([2]; 15 min): 10243.33 ng/g or ng/ml | Conc. CSF (cerebrospinal fluid) ([2]; 15 min): 147.67 ng/g or ng/ml | Conc. Plasm (plasma) ([2]; 15 min): 5203.33 ng/g or ng/ml | Conc. Brain (brain tissue) ([2]; 60 min): 9273.33 ng/g or ng/ml | Conc. CSF (cerebrospinal fluid) ([2]; 60 min): 61.9 ng/g or ng/ml | Conc. Plasm (plasma) ([2]; 60 min): 2073.33 ng/g or ng/ml | Conc. Brain (brain tissue) ([2]; 120 min): 2890 ng/g or ng/ml | Conc. CSF (cerebrospinal fluid) ([2]; 120 min): 34.4 ng/g or ng/ml | Conc. Plasm (plasma) ([2]; 120 min): 864.33 ng/g or ng/ml | Kp at 15 min [2, 5]: 1.97 | Kp at 60 min [2, 6]: 4.47 | Kp at 120 min [2, 7]: 3.34 | Kp at 15 min [2, 8]: 0.028 | Kp at 60 min [2, 9]: 0.03 | Kp at 120 min [2, 10]: 0.04
